Measured values taken from PubChem BioAssay (NCI).
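Abbreviation: GI50, concentration required for 50% inhibition of growth. TGI is the concentration that stops growth completely.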

Assays:
Assay in all cases: growth of human tumour cells (NCI), 384-well format
NCI-H23 lung = test system: NCI-H23 lung
A498 renal = test system: A498 renal
MOLT-4 leukemia = test system: MOLT-4 leukemia
HT29 colon = test system: HT29 colon
RXF 393 renal = test system: RXF 393 renal
SK-OV-3 ovarian = test system: SK-OV-3 ovarian
SK-MEL-28 melanoma = test system: SK-MEL-28 melanoma
HOP-92 NSCLC = test system: HOP-92 NSCLC
PC-3 prostate = test system: PC-3 prostate
CAKI-1 renal = test system: CAKI-1 renal
M14 melanoma = test system: M14 melanoma
NCI-H322M lung = test system: NCI-H322M lung
SR leukemia = test system: SR leukemia
HCT-116 colon = test system: HCT-116 colon
T-47D breast = test system: T-47D breast
DU-145 prostate = test system: DU-145 prostate
OVCAR-4 ovarian = test system: OVCAR-4 ovarian
OVCAR-8 ovarian = test system: OVCAR-8 ovarian
NCI-H460 NSCLC = test system: NCI-H460 NSCLC
OVCAR-5 ovarian = test system: OVCAR-5 ovarian
NCI-H226 lung = test system: NCI-H226 lung
HOP-62 NSCLC = test system: HOP-62 NSCLC
SW-620 colon = test system: SW-620 colon
NCI-H522 lung = test system: NCI-H522 lung
OVCAR-3 ovarian = test system: OVCAR-3 ovarian
SF-295 CNS = test system: SF-295 CNS
786-0 renal = test system: 786-0 renal
EKVX NSCLC = test system: EKVX NSCLC
CCRF-CEM leukemia = test system: CCRF-CEM leukemia
TK-10 renal = test system: TK-10 renal
COLO 205 colon = test system: COLO 205 colon
UO-31 renal = test system: UO-31 renal
BT-549 breast = test system: BT-549 breast
SK-MEL-5 melanoma = test system: SK-MEL-5 melanoma
MDA-MB-231 breast = test system: MDA-MB-231 breast
HCT-15 colon = test system: HCT-15 colon
HS 578T breast = test system: HS 578T breast
MALME-3M melanoma = test system: MALME-3M melanoma
SF-268 CNS = test system: SF-268 CNS
LOX IMVI melanoma = test system: LOX IMVI melanoma
K-562 leukemia = test system: K-562 leukemia
KM12 colon = test system: KM12 colon
MDA-MB-468 breast = test system: MDA-MB-468 breast
UACC-257 melanoma = test system: UACC-257 melanoma
SN12C renal = test system: SN12C renal
IGROV1 ovarian = test system: IGROV1 ovarian
NCI/ADR-RES ovarian = test system: NCI/ADR-RES ovarian
RPMI-8226 leukemia = test system: RPMI-8226 leukemia
MCF7 breast = test system: MCF7 breast
ACHN renal = test system: ACHN renal
U251 glioblastoma = test system: U251 glioblastoma
SNB-19 CNS = test system: SNB-19 CNS
SNB-75 CNS = test system: SNB-75 CNS
MDA-MB-435 melanoma = test system: MDA-MB-435 melanoma
HCC-2998 colon = test system: HCC-2998 colon
A549 NSCLC = test system: A549 NSCLC
SF-539 CNS = test system: SF-539 CNS

COc1cccc2c1ccc1nc3cccc(C(=O)N[C@H](C)CN(C)C)c3nc12
GI50 (NCI-H23 lung): 91.5 nM
TGI (NCI-H23 lung): 216 nM
GI50 (A498 renal): 51.1 nM
TGI (A498 renal): 384 nM
GI50 (MOLT-4 leukemia): 15.5 nM
TGI (MOLT-4 leukemia): 29.1 nM
GI50 (HT29 colon): 103 nM
TGI (HT29 colon): 11800 nM
GI50 (RXF 393 renal): 111 nM
TGI (RXF 393 renal): 242 nM
GI50 (SK-OV-3 ovarian): 85 nM
TGI (SK-OV-3 ovarian): 430 nM
GI50 (SK-MEL-28 melanoma): 123 nM
TGI (SK-MEL-28 melanoma): 291 nM
GI50 (HOP-92 NSCLC): 92 nM
TGI (HOP-92 NSCLC): 1620 nM
GI50 (PC-3 prostate): 142 nM
TGI (PC-3 prostate): 603 nM
GI50 (CAKI-1 renal): 37.3 nM
TGI (CAKI-1 renal): 2720 nM
GI50 (M14 melanoma): 101 nM
TGI (M14 melanoma): 225 nM
GI50 (NCI-H322M lung): 115 nM
TGI (NCI-H322M lung): 361 nM
TGI (SR leukemia): 20.4 nM
GI50 (HCT-116 colon): 35.3 nM
TGI (HCT-116 colon): 1080 nM
GI50 (T-47D breast): 117 nM
TGI (T-47D breast): 315 nM
GI50 (DU-145 prostate): 69.2 nM
TGI (DU-145 prostate): 524 nM
GI50 (OVCAR-4 ovarian): 130 nM
TGI (OVCAR-4 ovarian): 388 nM
GI50 (OVCAR-8 ovarian): 96.8 nM
TGI (OVCAR-8 ovarian): 273 nM
GI50 (NCI-H460 NSCLC): 34.4 nM
TGI (NCI-H460 NSCLC): 112 nM
GI50 (OVCAR-5 ovarian): 127 nM
TGI (OVCAR-5 ovarian): 12200 nM
GI50 (NCI-H226 lung): 73.4 nM
TGI (NCI-H226 lung): 340 nM
GI50 (HOP-62 NSCLC): 56 nM
TGI (HOP-62 NSCLC): 231 nM
GI50 (SW-620 colon): 29.9 nM
TGI (SW-620 colon): 290 nM
GI50 (NCI-H522 lung): 102 nM
TGI (NCI-H522 lung): 278 nM
GI50 (OVCAR-3 ovarian): 72.9 nM
TGI (OVCAR-3 ovarian): 292 nM
GI50 (SF-295 CNS): 37.6 nM
TGI (SF-295 CNS): 221 nM
GI50 ([…]-0 renal): 57.5 nM
TGI (786-0 renal): 861 nM
GI50 (EKVX NSCLC): 156 nM
TGI (EKVX NSCLC): 380 nM
GI50 (CCRF-CEM leukemia): 42.3 nM
TGI (CCRF-CEM leukemia): 160 nM
GI50 (TK-10 renal): 90.5 nM
TGI (TK-10 renal): 554 nM
GI50 (COLO 205 colon): 12.8 nM
TGI (COLO 205 colon): 99.9 nM
GI50 (UO-31 renal): 56.1 nM
TGI (UO-31 renal): 398 nM
GI50 (BT-549 breast): 125 nM
TGI (BT-549 breast): 268 nM
GI50 (SK-MEL-5 melanoma): 35.3 nM
TGI (SK-MEL-5 melanoma): 90.4 nM
GI50 (MDA-MB-231 breast): 110 nM
TGI (MDA-MB-231 breast): 393 nM
GI50 (HCT-15 colon): 41.3 nM
TGI (HCT-15 colon): 187 nM
GI50 (HS 578T breast): 141 nM
TGI (HS 578T breast): 289 nM
GI50 (MALME-3M melanoma): 28.3 nM
TGI (MALME-3M melanoma): 68 nM
GI50 (SF-268 CNS): 63.5 nM
TGI (SF-268 CNS): 228 nM
GI50 (LOX IMVI melanoma): 45.9 nM
TGI (LOX IMVI melanoma): 155 nM
GI50 (K-562 leukemia): 45.4 nM
TGI (K-562 leukemia): 156 nM
GI50 (KM12 colon): 84.7 nM
TGI (KM12 colon): 881 nM
GI50 (MDA-MB-468 breast): 23.8 nM
TGI (MDA-MB-468 breast): 63.9 nM
GI50 (UACC-257 melanoma): 104 nM
TGI (UACC-257 melanoma): 230 nM
GI50 (SN12C renal): 77.4 nM
TGI (SN12C renal): 249 nM
GI50 (IGROV1 ovarian): 61.9 nM
TGI (IGROV1 ovarian): 609 nM
GI50 (NCI/ADR-RES ovarian): 55.2 nM
TGI (NCI/ADR-RES ovarian): 215 nM
GI50 (RPMI-8226 leukemia): 27.1 nM
TGI (RPMI-8226 leukemia): 74.6 nM
GI50 (MCF7 breast): 46.7 nM
TGI (MCF7 breast): 1100 nM
GI50 (ACHN renal): 28.3 nM
TGI (ACHN renal): 243 nM
GI50 (U251 glioblastoma): 57.8 nM
TGI (U251 glioblastoma): 311 nM
GI50 (SNB-19 CNS): 75.2 nM
TGI (SNB-19 CNS): 1050 nM
GI50 (SNB-75 CNS): 111 nM
TGI (SNB-75 CNS): 238 nM
GI50 (MDA-MB-435 melanoma): 106 nM
TGI (MDA-MB-435 melanoma): 229 nM
GI50 (HCC-2998 colon): 41.4 nM
TGI (HCC-2998 colon): 162 nM
GI50 (A549 NSCLC): 42.9 nM
TGI (A549 NSCLC): 904 nM
GI50 (SF-539 CNS): 52.8 nM
TGI (SF-539 CNS): 174 nM
